From US8324225B2, “Pyrrolopyrimidine compounds and their uses” (Novartis AG, priority 2006, dated 2012) come the findings set out here.

What all share (format): biochemical
The target of experiment [1] is CDK4/Cyclin-D1 kinase complex (Homo sapiens, UniProt P11802). In words: CDK4 ELISA based assay, Rb phosphorylation at Serine780. The following applies: Table C. An excerpt: The compounds that inhibit the CDK4 kinase activity would inhibit the signal output of the assay.
In experiment [2] the target is CDK2/Cyclin-A kinase complex (Homo sapiens, UniProt P24941). In words: CDK2 IMAP fluorescence polarization assay. The following applies: Table C; read-out: CDK2 IC50. An excerpt: In order to test the CDK2 activity of the compounds of the invention, the CDK2 assay is a fluorescence polarization assay, where the enzyme is a purified active CDK2/Cyclin-A kinase complex and the substrate is a synthesized peptide derived from Histone H1. This assay utilizes the IMAP technology from Molecular Devices. The active CDK2/Cyclin-A complex phosphorylates the peptide substrate, which is conjugated with the TAMRA tag. The phosphorylated site is then recognized by a metal containing molecule that interacts with the TAMRA tag to induce a high fluorescence polarization. The compounds that inhibit the CDK2 kinase activity would inhibit the fluorescence output of the assay.
Background: Polarisation of emitted light reports the rotation of a fluorescent probe.

Experiment [3] deals with CDK4 (Homo sapiens, UniProt P11802). Description: CDK4 HTRF. The note with it: Table E; read-out: CDK4 HTRF/IC50 [umol l − 1].
Chain of CDK4 (P11802 whole entry): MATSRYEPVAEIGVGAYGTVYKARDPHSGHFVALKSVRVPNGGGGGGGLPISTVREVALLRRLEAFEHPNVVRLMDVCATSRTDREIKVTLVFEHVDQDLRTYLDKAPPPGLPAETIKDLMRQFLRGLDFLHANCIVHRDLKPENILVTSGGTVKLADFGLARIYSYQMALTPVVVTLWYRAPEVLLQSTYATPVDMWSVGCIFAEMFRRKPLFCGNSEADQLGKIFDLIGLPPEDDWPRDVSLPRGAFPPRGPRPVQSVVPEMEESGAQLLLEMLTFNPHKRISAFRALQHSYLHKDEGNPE
Chain of CDK4 (P24385 whole entry partner): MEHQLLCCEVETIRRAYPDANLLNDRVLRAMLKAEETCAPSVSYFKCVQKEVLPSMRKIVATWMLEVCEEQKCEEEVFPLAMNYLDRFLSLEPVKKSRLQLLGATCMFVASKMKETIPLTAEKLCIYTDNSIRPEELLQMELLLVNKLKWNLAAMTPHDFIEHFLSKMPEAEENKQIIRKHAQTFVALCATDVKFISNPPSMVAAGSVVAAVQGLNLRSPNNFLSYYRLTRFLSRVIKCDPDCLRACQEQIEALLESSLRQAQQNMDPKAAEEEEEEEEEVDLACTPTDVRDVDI

Chain of CDK4/Cyclin-D1 kinase complex (P11802 whole entry): as the sequence (P11802 whole entry) above
Chain of CDK4/Cyclin-D1 kinase complex (P24385 whole entry partner): as the sequence (P24385 whole entry partner) above

As to `CC(=O)N1CCN(c2ccc(Nc3ncc4ccn(C5CCCC5)c4n3)nc2)CC1`, the IC50 in experiment [1] was greater than 10 µM.
Consider `Cc1cn(C2CCCC2)c2nc(Nc3ccc(N4CCNCC4)cc3)ncc12`, for which the IC50 in experiment [2] is less than 10 µM.
With `CCC(CC)n1c(CNC(C)C)cc2cnc(Nc3ccc(N4CCN(C(C)=O)CC4)cc3)nc21` [Example 366], the IC50 in experiment [3] is less than 10 µM.
The same measure, in the same setting: for `CCC(C(=O)OC)n1ccc2cnc(Nc3ccc(N4CCN(C(C)=O)CC4)cc3)nc21` (centres unmarked) [Example 219] the value was less than 10 µM; for `CCC(C)n1ccc2cnc(Nc3ccc(N4CCN(C(C)=O)CC4)cc3)nc21` (centres unmarked) [Example 222], less than 10 µM; for `Cc1cn(C2CCCC2)c2nc(Nc3ccc(N4CCOCC4)cn3)ncc12` [Example 302], less than 10 µM.
Compound `Cc1cn(C2CCCCC2)c2nc(Nc3ccc(N4CCNCC4)cn3)ncc12` came in with an IC50 in experiment [1] of less than 10 µM.
In the case of `Cc1cn(C2CCCC2)c2nc(Nc3ccc(-n4ccnc4)cc3)ncc12` [Example 312], in experiment [3], the IC50 is less than 10 µM.
In experiment [1], `c1cc(Nc2ncc3ccn(C4CCCC4)c3n2)ncc1N1CCNCC1` returned an IC50 greater than 10 µM.
Turning to `CCC(CC)n1c(C(=O)NC2CCCC2)cc2cnc(Nc3ccc(N4CCNCC4)cc3)nc21` [Example 344], the IC50 in experiment [3] is less than 10 µM.
Take `Cc1cn(C2CCCC2)c2nc(Nc3ccc(C(=O)N4CCOCC4)cc3)ncc12` [Example 292]: the IC50 in experiment [3] was less than 10 µM.
In the case of `Cc1cn(C2CC2)c2nc(Nc3ccc(N4CCNCC4)cn3)ncc12`, the IC50 in experiment [1] was less than 10 µM.
`CCC(CC)n1c(COC)cc2cnc(Nc3ccc(N4CCN(C(C)=O)CC4)cc3)nc21` [Example 379]: the IC50 in experiment [3] is less than 10 µM.
For `CCC(CC)n1c(CNc2cccnc2)cc2cnc(Nc3ccc(N4CCN(C(C)=O)CC4)cc3)nc21` [Example 369], the IC50 in experiment [3] was less than 10 µM.
Turning to `CCC(CC)n1c(CNc2cc(C)[nH]n2)cc2cnc(Nc3ccc(N4CCN(C(C)=O)CC4)cc3)nc21` [Example 372], the IC50 in experiment [3] was less than 10 µM.
Take `Cc1cn(-c2cccnc2)c2nc(Nc3ccc(N4CCNCC4)cc3)ncc12` [Example 322]: the IC50 in experiment [3] was less than 10 µM.
`CC(=O)N1CCN(c2ccc(Nc3ncc4ccn(C5CCOCC5)c4n3)cc2)CC1` [Example 228]: in experiment [3], the IC50 is less than 10 µM.
Consider `CC(=O)N1CCN(c2ccc(Nc3ncc4ccn(C5CCCCC5=O)c4n3)cc2)CC1` (centres unmarked) [Example 226], for which the IC50 in experiment [3] was less than 10 µM.
Consider `CCC(CC)n1c(C(=O)OC)cc2cnc(Nc3ccc(N4CCN(C(C)=O)CC4)cc3)nc21` [Example 373, 2-[4-(4-Acetyl-piperazin-1-yl)-phenylamino]-7-(1-ethyl-propyl)-7H-pyrrolo[2,3-d]pyrimidine-6-carboxylic acid methyl ester], for which the IC50 in experiment [3] was less than 10 µM.
On to `CC(=O)N1CCN(c2ccc(Nc3ncc4c(C)cn(C5CCCC5)c4n3)cc2)CC1`, for which the IC50 in experiment [2] and in experiment [1] was less than 10 µM in each case.
On to `Cc1cn(C2CCCC2)c2nc(Nc3cccnc3)ncc12` [Example 300], for which the IC50 in experiment [3] was less than 10 µM.
Take `CCC(CC)n1c(COC)cc2cnc(Nc3ccc(C(=O)NC4CCCC4)cc3)nc21` [Example 380]: the IC50 in experiment [3] is less than 10 µM.
Regarding `CC(C)c1cn(C2CCCC2)c2nc(Nc3ccc(N4CCNCC4)cn3)ncc12` [Example 440], the IC50 in experiment [3] was less than 10 µM.
In the case of `Cc1cn(-c2ccccn2)c2nc(Nc3ccc(N4CCNCC4)cn3)ncc12` [Example 320, (5-Methyl-7-pyridin-2-yl-7H-pyrrolo[2,3-d]pyrimidin-2-yl)-(5-piperazin-1-yl-pyridin-2-yl)-amine], the IC50 in experiment [3] was less than 10 µM.
On the same count and under the same terms, then `Cc1cn(C2CCCC2)c2nc(Nc3ccc(N(C)C)cc3)ncc12` [Example 311], with less than 10 µM.
As for `CCc1cn(C2CCCC2)c2nc(Nc3ccc(N4CCNCC4)cc3)ncc12` [Example 438], in experiment [3], the IC50 is less than 10 µM.
In the case of `CCC(CC)n1c(CNc2ccon2)cc2cnc(Nc3ccc(N4CCN(C(C)=O)CC4)cc3)nc21` [Example 371], the IC50 in experiment [3] was less than 10 µM.
`CCC(CC)n1c(CNCc2ccco2)cc2cnc(Nc3ccc(N4CCN(C(C)=O)CC4)cc3)nc21` [Example 449]: the IC50 in experiment [3] was less than 10 µM.
For the compound `CCC(CC)n1c(C(=O)Nc2ccc(CN3CCN(C)CC3)cc2)cc2cnc(Nc3ccc(N4CCNCC4)cc3)nc21` [Example 354], in experiment [3], the IC50 is less than 10 µM.
As to `CCC(CC)n1c(CNC2CCCC2)cc2cnc(Nc3ccc(N4CCN(C(C)=O)CC4)cc3)nc21` [Example 370], the IC50 in experiment [3] is less than 10 µM.
With `Cc1cc(-c2c(C)c3cnc(Nc4ccc(N5CCNCC5)cn4)nc3n2C2CCCC2)on1` [Example 405], the IC50 in experiment [3] was less than 10 µM.
Turning to `CC(=O)N1CCN(c2ccc(Nc3ncc4ccn(C5CCCC5)c4n3)cc2)CC1`, in experiment [1], the IC50 was greater than 10 µM.
With `CN(C)CC1CCC(n2ccc3cnc(Nc4ccc(N5CCNCC5)cc4)nc32)C1` (centres unmarked) [Example 249], the IC50 in experiment [3] is less than 10 µM.
Turning to `CCC(=O)N1CCN(c2ccc(Nc3ncc4ccn(C(CC)CC)c4n3)cc2)CC1` [Example 237], in experiment [3], the IC50 is less than 10 µM.
On to `CC(=O)c1c(C)c2cnc(Nc3ccc(N4CCNCC4)cn3)nc2n1C1CCOCC1` [Example 388], for which, in experiment [3], the IC50 was less than 10 µM.
Still for that read-out and setting: for `Cc1cn(C2CCCC2)c2nc(Nc3ccc(N4CCCCC4)cc3)ncc12` [Example 278] the value was less than 10 µM.
With `Cc1cn(C2CCCC2)c2nc(Nc3ccncc3)ncc12` [Example 298], the IC50 in experiment [3] was less than 10 µM.
In the case of `CCC(CC)n1c(C(=O)Nc2ccc(C(C)(C)C)cc2)cc2cnc(Nc3ccc(N4CCNCC4)cc3)nc21` [Example 349], the IC50 in experiment [3] was less than 10 µM.
`c1cc(N2CCNCC2)ccc1Nc1ncc2ccn(C3CCOCC3)c2n1` [Example 235]: the IC50 in experiment [3] was less than 10 µM.
Consider `Cc1cn(C2CCCC2)c2nc(Nc3ccc(N4CCN(S(C)(=O)=O)CC4)cc3)ncc12` [Example 286], for which, in experiment [3], the IC50 is less than 10 µM.
In turn, `CN1CCN(c2ccc(Nc3ncc4ccn(C5CCCC5)c4n3)cc2)CC1` came in with an IC50 in experiment [1] of less than 10 µM.
With `CCC(C(N)=O)n1ccc2cnc(Nc3ccc(N4CCN(C(C)=O)CC4)cc3)nc21` (centres unmarked) [Example 227], the IC50 in experiment [3] is less than 10 µM.
As to `Cc1cn(-c2nccs2)c2nc(Nc3ccc(N4CCNCC4)cn3)ncc12` [Example 321], the IC50 in experiment [3] was less than 10 µM.
Consider `CC(=O)N1CCN(c2ccc(Nc3ncc4ccn(C5CCCC(C)C5)c4n3)cc2)CC1` (centres unmarked) [Example 241], for which the IC50 in experiment [3] was less than 10 µM.
As to `Cc1c(C(=O)N(C)C)n(C2CCCC2)c2nc(Nc3ccc(N4CCNCC4)cn3)ncc12` [Example 392], the IC50 in experiment [3] was less than 10 µM.
Take `Cc1cn(C2CCCC2)c2nc(Nc3ccc(CO)cc3)ncc12` [Example 466]: the IC50 in experiment [3] was less than 10 µM.
Turning to `Cc1cn(C2CCCC2)c2nc(Nc3ccc(N4CCN(C)CC4)cc3)ncc12`, the IC50 in experiment [2] is greater than 10 µM; in experiment [1], less than 10 µM.
As for `Cc1cn(C2CCCC2)c2nc(Nc3ccc4[nH]ncc4c3)ncc12` [Example 281], the IC50 in experiment [3] is less than 10 µM.
For the compound `Cc1cn(C2CCCC2)c2nc(Nc3ccc(N4CCNCC4)cn3)ncc12`, the IC50 in experiment [2] was greater than 10 µM; in experiment [1], less than 10 µM.
Regarding `CCC(CC)n1c(CNC(C)C)cc2cnc(Nc3ccc(N4CCNCC4)cc3)nc21` [Example 367], the IC50 in experiment [3] is less than 10 µM.
On to `Cc1cn(C2CCCC2)c2nc(Nc3ccc(S(N)(=O)=O)cc3)ncc12` [Example 288], for which the IC50 in experiment [3] was less than 10 µM.
`CC(C)(C)OC(=O)N1CCN(c2ccc(Nc3ncc4ccn(C5CCCC5)c4n3)nc2)CC1` returned an IC50 in experiment [1] greater than 10 µM.
On to `Cc1cn(C2CC2)c2nc(Nc3ccc(N4CCNCC4)cc3)ncc12`, for which the IC50 in experiment [1] is less than 10 µM.
As to `Cc1cn(C2CCCC2)c2nc(Nc3ccc(CN4CCN(C(=O)OC(C)(C)C)CC4)cc3)ncc12` [Example 462], the IC50 in experiment [3] is less than 10 µM.
`CC(=O)N1CCN(c2ccc(Nc3ncc4ccn(C5CCC(C)CC5)c4n3)cc2)CC1` (centres unmarked) [Example 236]: the IC50 in experiment [3] was less than 10 µM.
For the compound `CN1CCN(c2ccc(Nc3ncc4ccn(C5CCCC5)c4n3)nc2)CC1` [Example 255], in experiment [3], the IC50 was less than 10 µM.
Consider `CN(C)C(=O)c1cc2cnc(NCc3ccc(N4CCNCC4)cc3)nc2n1C1CCCC1` [Example 467], for which, in experiment [3], the IC50 is less than 10 µM.
Turning to `CCC(CC)n1c(C(=O)N2CCOCC2)cc2cnc(Nc3ccc(N4CCNCC4)cc3)nc21` [Example 343], in experiment [3], the IC50 is less than 10 µM.
As to `Cc1cn(-c2ccccc2)c2nc(Nc3ccc(N4CCNCC4)cc3)ncc12` [Example 437], in experiment [3], the IC50 is less than 10 µM.
Same read-out and setting: for `CCOC(=O)C(C(C)C)n1ccc2cnc(Nc3ccc(N4CCN(C(C)=O)CC4)cc3)nc21` (centres unmarked) [Example 223] the value was less than 10 µM; for `Cc1cn(C2CCCC2)c2nc(Nc3ccc(N4CCNCC4)nc3)ncc12` [Example 283], less than 10 µM.
On the same count and under the same terms, then `CCC(C(=O)OC)n1ccc2cnc(Nc3ccc(N4CCNCC4)cc3)nc21` (centres unmarked) [Example 221], with less than 10 µM; and `Cc1cn(C2CCCC2)c2nc(Nc3ccc(N4CCNCC4)c(F)c3)ncc12` [Example 285], with less than 10 µM; and `CCCCNC(=O)c1cc2cnc(Nc3ccc(N4CCNCC4)cc3)nc2n1C(CC)CC` [Example 336], with less than 10 µM.
For `CCC(C(N)=O)n1ccc2cnc(Nc3ccc(N4CCNCC4)cc3)nc21` (centres unmarked) [Example 234], in experiment [3], the IC50 is less than 10 µM.
`c1cc(N2CCNCC2)ccc1Nc1ncc2ccn(C3CCCC3)c2n1` displayed an IC50 in experiment [1] of less than 10 µM.
Regarding `CC(=O)N1CCN(c2ccc(Nc3ncc4ccn(C(C)CN(C)C)c4n3)cc2)CC1` (centres unmarked) [Example 229], in experiment [3], the IC50 is less than 10 µM.
On to `CCC(CC)n1c(C(=O)N2CCCC2)cc2cnc(Nc3ccc(N4CCNCC4)cc3)nc21` [Example 337], for which the IC50 in experiment [3] was less than 10 µM.
